Data published in publication PMC6471066, “Spiralyde A, an Antikinetoplastid Dolabellane from the Brown Alga Dictyota spiralis” (Marine Drugs, 2019).

How the values were obtained:
[1] = tested on: epimastigotes Trypanosoma cruzi (Y strain); test: Trypanocidal capacity assay (Alamar Blue); format: cell-based; settings: epimastigote form; for IC50: 96 h
Experimental: (§1) Bioassay-guided fractionation of the crude extract yielded six dolabellanes 1–6. Their in vitro antiprotozoal activity was evaluated applying serial dilutions of the compounds, and IC50 were calculated using the Alamar Blue reagent reaction.
(§2) The activity of the crude extract, different subfractions and isolated compounds were evaluated against promastigotes of Leishmania amazonensis (MHOM/BR/77/LTB0016) and epimastigotes Trypanosoma cruzi (Y strain). Cytotoxicity assay of the active compounds was tested against the murine macrophage J774.A1 cell line (ATCC # TIB-67).
The activity was evaluated in vitro against epimastigote stage of Trypanosoma cruzi. Different concentrations of fractions and compounds were incubated in 96 wells plate for 96 h with a density of 10^5 parasite/well. 10% of Alamar blue was added to each well and the IC50 was calculated. All assays have been realized in triplicate.

[2] = Cytotoxicity assay (Alamar Blue); format: cell-based; settings: mouse, J774.A1 macrophage cell line (ATCC TIB-67), murine macrophage J774.A1
Experimental: as §2, with “TIB-67).[…]” for “TIB-67).”

[3] = tested on: promastigotes of Leishmania amazonensis (MHOM/BR/77/LTB0016); test: Leishmanicidal capacity assay (Alamar Blue); format: cell-based; settings: promastigote form; for IC50: Leishmania amazonensis
Experimental: as §1, §2
Logarithmic phase cultures of Leishmania amazonensis were used for experimental purposes, and the in vitro susceptibility assay was performed in sterilized 96-well plates. 10^6/well parasites were added to wells containing different concentration of the drug to be tested. Percentages of inhibition, 50% inhibitory concentrations (IC50) for active compounds were calculated by linear regression analysis using the Alamar Blue method.

[4] = tested on: promastigote form of L. amazonensis; design: method as in PMID 22970332; settings: promastigotes; cited from earlier work

Structure (SMILES)	IC50 ([1]; Trypanosoma cruzi) [µM]	IC50 [1] [µM]	CC50 at 24 h [2] [µM]	IC50 [3] [µM]	antikinetoplastid activity against Leishmania amazonensis (in words) [3]	antikinetoplastid activity against Trypanosoma cruzi (in words) [1]	IC50 [4] [µM]
O=C(Cn1ccnc1[N+](=O)[O-])NCc1ccccc1 [Benznidazole, reference compound]	6.95	6.94 ± 1.94	400 ± 4				
CCCCCCCCCCCCCCCCOP(=O)([O-])OCC[N+](C)(C)C [Miltefosine, reference compound]			72.2 ± 3.06				
C=C(C)C1CCC2(C)CC=C(C)CCC=C(C=O)C(O)CC12 (stereo not shown) [Spiralyde A (1), Spiralyde A]	5.62 ± 2.48		23.4 ± 5.62	15.5 ± 0.26			
C=C(C)[C@H]1CC[C@]2(C)C[C@@H]3O[C@@]3(C)CC/C=C(\C)CC[C@@H]12 [compound 2, (1R,3S,4S,7E,11S,12S)-3,4-Epoxy-7,18-dolabelladiene]	35.3 ± 4.09		69.98 ± 0.14	36.8 ± 5.2	moderate activity	moderate activity	
C=C(C)[C@H]1C[C@H](O)[C@]2(C)C[C@@H]3O[C@@]3(C)CC/C=C(\C)CC[C@@H]12 [compound 3, (1R,3S,4S,7E,11S,12S,14S)-3,4-Epoxy-14-hydroxy-7,18-dolabelladiene]	> 100			> 100	inactive	inactive	
C=C(C)[C@H]1CC(=O)[C@]2(C)C[C@@H]3O[C@@]3(C)CC/C=C(\C)CC[C@@H]12 [compound 4, (1R,3S,4S,7E,11S,12S)-3,4-Epoxy-14-oxo-7,18-dolabelladiene]	> 100			> 100	inactive	inactive	
C=C(C)[C@H]1CC(=O)[C@]2(C)C/C=C(\C)CC/C=C(\C)CC[C@@H]12 [compound 5, (1R,3E,7E,11S,12S)-14-Oxo-3,7,18-dolabellatriene]	> 100			> 100			
C=C(C)C1CC(=O)C2(C)CC=C(C)CCC=C(C)CCC12 [compound 6, (1R,3Z,7E,11S,12S)-14-Oxo-3,7,18-dolabellatriene]	> 100			> 100			
C[C@H]1/C=C/[C@@]2(C)CC[C@@H](C(C)(C)O)[C@@H]2[C@@H](O)C[C@](C)(O)/C=C/C1 [dolabelladienetriol (9), dolabelladienetriol]							44
